This is an account of results in patent publication US10479814B2, “Adenosine receptor activation reagent and the uses of thereof” (Zhejiang Subtropical Crops Research Institute, priority 2014, dated 2019).

Experiment [1] relates to mouse spontaneous activity. Put plainly: mouse spontaneous activity (sedation). The experiment is classed as in vivo. The procedure: Male ICR mice were randomly divided into four groups, and adenosine A1R antagonist DPCPX was selected. The mice were divided into solvent group, HEA (15 mg/kg) group, DPCPX (4 mg/kg) and DPCPX+HEA (4 mg/kg+15 mg/kg) group; wherein in DPCPX+HEA group, the mice was peritonealelly injected with the antagonist, after 10 min the HEA was peritoneally injected. After 15 min of drug administration, the mice were put into a single opaque square spontaneous activity box (50 cm×50 cm×40 cm), and foot grating number within 5 min was recorded by video camera. Calculating on the basis of four limbs of the mouse entering the same lattice, as the activity index of the animal.

In experiment [2] the test system is pain writhing response induced by 0.7% acetic acid. Put plainly: acetic acid writhing method (analgesia). Type of experiment: in vivo, mouse. Conditions: for effect of A1 antagonist on analgesic effect of the HEA: DPCPX 1 mg/kg ip 10 minutes before HEA 15 mg/kg. As to the method: Clean male Kunming mice, weight 18-22 g, selecting adenosine AiR antagonist DPCPX. The mice were divided into solvent group, HEA (15 mg/kg) group, DPCPX (1 mg/kg) and DPCPX+HEA (1 mg/kg+15 mg/kg) group; wherein in DPCPX+HEA group, the mouse was peritoneally injected with antagonist, after 10 minutes, the HEA was peritonealy injected. Using writhing method, the treatment dose was given, after 30-40 minutes, 0.7% acetic acid was peritoneally injected, and writhing number of the white mouse within 15 minutes was recorded, calculating the reduction number of pain writhing response induced by 0.7% acetic acid by the HEA.
(In writhing tests, fewer writhes than in controls are read as antinociception.)

The test system of experiment [3] is mouse kidney ischemia reperfusion. As to the kind of experiment: kidney ischemia reperfusion: kidney function test (Scr, BUN). Type of experiment: in vivo. Conditions: for serum BUN level / serum Scr level: 24 h after ischemia reperfusion, vs IR group, ip pretreatment, HEA 5, 7.5, 10 mg/kg, DPCPX 1 mg/kg, DPCPX 1 mg/kg+HEA 7.5 mg/kg. The procedure:
(§1) Male C57BL/6 mice 20-25 g, after one week of adaptive feeding to the animals, were randomly divided into eight groups: sham-operation group, IR group, HEA 5 mg/kg group, HEA 7 mg/kg group, HEA 10 mg/kg group, DPCPX (1 mg/kg) group, DPCPX (1 mg/kg)+HEA (5 mg/kg) group and DPCPX (1 mg/kg)+HEA (7.5 mg/kg) group. The mouse was weighed before operation, then peritoneally injected with pentobarbital sodium 50 mg/kg to anaesthetize the mouse, abdomen was opened by ventromedial incision, blunt dissection and the kidney pedicle was sufficiently exposed, renal ischemia was induced by clapping two side kidney pedicle with non-invasive bulldog clamp, the color of kidney change from bright red to purple black immediately, determination method of success of the experiment model can refer to the methods in literature 7 and 8. At time of 30 min of ischemia the bulldog clamp was loosened, the perfuse was restored, the color of kidney changed gradually from dark red to bright red, showing re perfusion was successful. The wound was stitched. The animals were freely fed water and food. In the sham-operation group, the mice only received operation of abdomen open, kidney pedicle and abdomen suture. The kidney IR mode were made for the mice in the remaining groups. In each drug group, before 15 minute of ischemia, the drug with corresponding concentration was speritoneally injected, in drug combination group, 15 minutes before ischemia, the drugs were given simultaneously. At 24 hours after Reperfussion, the mouse was again anaesthetized, obtaining the venous blood. Using full-automatic biochemical analysis systems (Dimension Xpand plus, from Siemens AG), the Scr (serum creatinine) and BUN (blood urea nitrogen) levels were detected respectively by chrysolepic acid rate method and enzymatic rate.

For experiment [4] the test system is unchanged. As to the kind of experiment: kidney ischemia reperfusion: kidney histopathologic examination (HE). Type of experiment: in vivo. Particulars: vs IR group, DPCPX 1 mg/kg; for renal tubulointerstitial impairment score: P<0.01, HEA 5, 7.5, 10 mg/kg, DPCPX 1 mg/kg+HEA 5 or 7.5 mg/kg; for kidney histopathological changes (HE×400): HEA groups printed as 2.5, 5, 7.5 mg/kg, DPCPX+HEA 5 or 7.5 mg/kg. As to the method:
as §1, with “reperfusion,” for “Reperfussion,”, “anaesthetized again,” for “again anaesthetized, obtaining”, “kidney specimen was obtained. The kidney specimen is fixed by 10% formaldehyde solution, paraffin embedded, sectioned, hematoxylin-eosin staining (HE), and” for “venous blood. Using full-automatic biochemical analysis systems (Dimension Xpand plus, from Siemens AG),”, “kidney histopathological change was observed under optical microscope.” for “Scr (serum creatinine) and BUN (blood urea nitrogen) levels were detected respectively by chrysolepic acid rate method and enzymatic rate.”

Experiment [5] shares this test system. Put plainly: kidney ischemia reperfusion: apoptosis by TUNEL method. Type of experiment: in vivo. Conditions: vs IR group, DPCPX 1 mg/kg; for renal tubular epithelial cell apoptosis number (TUNEL×400): HEA treated group, DPCPX+HEA. As to the method:
Male C57BL/6 mice 20-25 g, after one week of adaptive feeding to the animals, were randomly divided into eight groups: sham-operation group, IR group, HEA 5 mg/kg group, HEA 7 mg/kg group, HEA 10 mg/kg group, DPCPX (1 mg/kg) group, DPCPX (1 mg/kg)+HEA (5 mg/kg) group and DPCPX (1 mg/kg)+HEA (7.5 mg/kg) group.
The mouse was weighed before operation, then peritoneally injected with pentobarbital sodium 50 mg/kg to anaesthetize the mouse, abdomen was opened by ventromedial incision, blunt dissection and the kidney pedicle was sufficiently exposed, renal ischemia was induced by clapping two side kidney pedicle with non-invasive bulldog clamp, the color of kidney change from bright red to purple black immediately, determination method of success of the experiment model can refer to the methods in literature 7 and 8. At time of 30 min of ischemia the bulldog clamp was loosened, the perfuse was restored, the color of kidney changed gradually from dark red to bright red, showing re perfusion was successful. The wound was stitched. The animals were freely fed water and food.
In the sham-operation group, the mice only received operation of abdomen open, kidney pedicle and abdomen suture. The kidney IR mode were made for the mice in the remaining groups. In each drug group, before 15 minute of ischemia, the drug with corresponding concentration was speritoneally injected, in drug combination group, 15 minutes before ischemia, the drugs were given simultaneously.
Fetching a part of the stored kidney tissue, conventional paraffin embedded 4 μm of section. Operate according to the method of the specification in kit. […] Randomly selecting 10 400-fold visual fields, calculate apoptosis index AI %=positive cell number/total number of all cell in the visual field×100%.

Structures are written as SMILES. “Also recorded” adds a separate entry of the source.

For the molecule `CCCn1c(=O)c2[nH]c(C3CCCC3)nc2n(CCC)c1=O` [DPCPX, reference compound], the “effect of DPCPX on sedation of the HEA” value in experiment [1] (DPCPX 4 mg/kg ip 10 min before HEA 15 mg/kg) was “sedation of the HEA is significantly antagonized”. For the same molecule, the “effect of A1 antagonist on analgesic effect of the HEA” value in experiment [2] is “analgesic effect of the HEA is significantly antagonized”. Besides, the “effect of A1 antagonist on analgesic effect of the HEA” value in experiment [2] (listed as adenosine A1 receptor antagonist) is on record as “analgesic effect was reduced”. For the same molecule, in experiment [3], the “serum BUN level” value is recorded as “significantly increase” and the “serum Scr level” value is on record as “significantly increase”. For the same molecule, in experiment [4], the “renal tubulointerstitial impairment score” value is given as “significantly increase renal tubulointerstitial impairment scores” and the “kidney histopathological changes (HE×400)” value is “aggravate tissue necrosis”. Moreover, the “renal tubular epithelial cell apoptosis number (TUNEL×400)” value in experiment [5] is on record as “significantly increased”.

For `OCCNc1ncnc2c1ncn2[C@@H]1O[C@H](CO)[C@@H](O)[C@H]1O` [HEA, N(6)-(2-hydroxyethyl)-adenosine], the “spontaneous activity number within 5 min” value in experiment [1] (normal mouse, HEA 15 mg/kg ip, 15 min after administration, vs solvent group) is “significant; also recorded: significantly reduce spontaneous activity number of normal mouse within 5 min”. Moreover, in experiment [2] (HEA 15 mg/kg ip, 0.7% acetic acid, within 15 minutes, vs solvent group), the writhing number result is listed as “significantly reduced the writhing number; also recorded: significantly reduce writhing number”. In experiment [3], the “serum BUN level” value is given as “significantly reduce” and the “serum Scr level” value is “significantly reduce”. For the same molecule, the “protective effect to mouse kidney ischemia reperfusion impairment” value in experiment [3] (by serum Scr and BUN level and kidney histopathological change) is recorded as “has protective effect to mouse kidney ischemia reperfusion impairment”. In experiment [4], the “renal tubulointerstitial impairment score” value is “significantly reduced” and the “kidney histopathological changes (HE×400)” value is “significantly reduced compared with IR group”. Moreover, in experiment [5] (P<0.01, HEA 5, 7.5, 10 mg/kg, DPCPX 1 mg/kg+HEA 5 or 7.5 mg/kg), the TUNEL apoptosis index result is reported as “significantly less than IR group”. Besides, the “renal tubular epithelial cell apoptosis number (TUNEL×400)” value in experiment [5] was “apoptosis number is reduced”.
